# Laboratory results taken from patent US10722514B2 (FLX Bio, Inc., priority 2017, dated 2020).
# pIC50: −log10 of the molar value. Where a name gives a salt, the structure may show the parent alone. Read-outs that look alike come from different tables or passages of the source.
# Molecular target: T1, recombinant full-length USP7 (Homo sapiens, UniProt Q93009)
# T1 construct: A 25 μl reaction volume containing recombinant full-length USP7 (62 pM)
# Assay: USP7-mediated ubiquitin-rhodamine cleavage assay
# Format: biochemical
# Settings: recombinant full-length USP7 62 pM, ubiquitin-rhodamine 100 nM, 1 hour reaction at room temperature
# Summary of the method: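 IC50 values came from fluorescence measured after a 1 h room-temperature reaction of 62 pM enzyme with 100 nM ubiquitin-rhodamine, following 30 min compound preincubation; fits used four parameters.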
# [1] = 30-minute pre-incubation, read-out: Potency (USP7 IC50)
# [2] = 30-minute incubation with compound, read-out: Potency: USP7 IC50
# [3] = 30-minute incubation, read-out: Potency (USP7 IC50)
# T1 sequence (Q93009 whole entry): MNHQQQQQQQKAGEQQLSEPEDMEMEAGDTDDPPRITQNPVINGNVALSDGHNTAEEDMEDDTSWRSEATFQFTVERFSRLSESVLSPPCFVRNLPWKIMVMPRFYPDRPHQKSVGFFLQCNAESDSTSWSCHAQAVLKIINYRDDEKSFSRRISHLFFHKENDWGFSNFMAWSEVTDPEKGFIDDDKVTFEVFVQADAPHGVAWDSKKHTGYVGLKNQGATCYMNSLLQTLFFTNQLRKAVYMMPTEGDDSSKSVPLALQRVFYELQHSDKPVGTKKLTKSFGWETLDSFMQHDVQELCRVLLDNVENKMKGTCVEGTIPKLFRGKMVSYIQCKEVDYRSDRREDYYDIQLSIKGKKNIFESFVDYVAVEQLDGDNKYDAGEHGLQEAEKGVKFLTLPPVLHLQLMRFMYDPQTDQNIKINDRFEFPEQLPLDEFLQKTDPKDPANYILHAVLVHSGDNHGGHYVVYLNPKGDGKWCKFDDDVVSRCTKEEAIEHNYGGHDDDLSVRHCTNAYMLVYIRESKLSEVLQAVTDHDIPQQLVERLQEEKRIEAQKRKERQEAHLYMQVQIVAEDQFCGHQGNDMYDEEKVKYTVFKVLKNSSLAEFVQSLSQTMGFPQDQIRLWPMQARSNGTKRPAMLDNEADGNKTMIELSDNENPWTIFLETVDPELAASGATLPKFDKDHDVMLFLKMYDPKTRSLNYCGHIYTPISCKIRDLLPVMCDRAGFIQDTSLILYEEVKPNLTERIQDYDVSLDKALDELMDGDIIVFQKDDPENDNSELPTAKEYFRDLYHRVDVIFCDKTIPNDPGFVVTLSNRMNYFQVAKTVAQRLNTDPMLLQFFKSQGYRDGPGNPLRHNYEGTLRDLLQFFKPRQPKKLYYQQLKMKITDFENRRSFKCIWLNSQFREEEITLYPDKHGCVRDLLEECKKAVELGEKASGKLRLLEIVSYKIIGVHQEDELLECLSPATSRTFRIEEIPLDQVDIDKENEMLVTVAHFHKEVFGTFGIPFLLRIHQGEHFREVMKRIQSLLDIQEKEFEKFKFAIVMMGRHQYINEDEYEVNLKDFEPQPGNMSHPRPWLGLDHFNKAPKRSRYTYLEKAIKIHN
Structure (SMILES),pIC50 [2],also measured
"Cc1cc(Cl)cc(-c2ccnc3cc(Cn4c(=O)ccn(C)c4=O)sc23)c1O[C@@H]1CCCN[C@@H]1C [Example 468, 3-[[7-[5-chloro-3-methyl-2-[[(2R,3R)-2-methyl-3-piperidyl]oxy]phenyl]thieno[3,2-b]pyridin-2-yl]methyl]-1-methyl-pyrimidine-2,4-dione; 2,2,2-trifluoroacetic acid]",–,pIC50 [1]: > 6.00
"Cc1cc(F)cc(-c2ccnc3cc(CO)sc23)c1O[C@H]1CCCNC1 [Example 238, (S)-(7-(5-Fluoro-3-methyl-2-(piperidin-3-yloxy)phenyl)thieno[3,2-b]pyridin-2-yl)methanol]",4.52 to 5.00,–
"Cc1cc(C(F)(F)F)cc(-c2ccnc3cc(CN4C(=O)C5CC5C4=O)sc23)c1O[C@@H]1CNC[C@@H]1F (stereo partly drawn) [Example 131, 3-((7-(2-(((3R,4S)-4-Fluoropyrrolidin-3-yl)oxy)-3-methyl-5-(trifluoromethyl)phenyl)thieno[3,2-b]pyridin-2-yl)methyl)-3-azabicyclo[3.1.0]hexane-2,4-dione]",> 6.00,–
"Cc1cc(C#N)cc(-c2ccnc3cc(CN4C(=O)CCC4=O)sc23)c1OCC1(C)CNC1 [Example 46, 3-(2-((2,5-Dioxopyrrolidin-1-yl)methyl)thieno[3,2-b]pyridin-7-yl)-5-methyl-4-((3-methylazetidin-3-yl)methoxy)benzonitrile]",> 6.00,–
"CN[C@H]1CC[C@H](Oc2c(C)cc(Cl)cc2-c2ccnc3cc(CN4C(=O)CCC4=O)sc23)CC1 [Example 213, 1-((7-(5-Chloro-3-methyl-2-(((1r,4r)-4-(methylamino)cyclohexyl)oxy)phenyl)thieno[3,2-b]pyridin-2-yl)methyl)pyrrolidine-2,5-dione]",> 6.00,–
"Cc1cc(Cl)cc(-c2ccnc3cc(CN4C(=O)C5CC5C4=O)sc23)c1OC1CCNCC1 (stereo not drawn) [Example 233, 3-((7-(5-Chloro-3-methyl-2-(piperidin-4-yloxy)phenyl)thieno[3,2-b]pyridin-2-yl)methyl)-3-azabicyclo[3.1.0]hexane-2,4-dione]",> 6.00,–
"Cc1cc(Cl)cc(-c2ccnc3cc(CN4C(=O)CCC4=O)sc23)c1O[C@H]1C[C@H]2CN[C@@H]1C2 [Example 220, 1-((7-(2-(((1R,4S,6S)-2-azabicyclo[2.2.1]heptan-6-yl)oxy)-5-chloro-3-methylphenyl)thieno[3,2-b]pyridin-2-yl)methyl)pyrrolidine-2,5-dione]",> 6.00,–
"Cc1cc(Cl)cc(-c2ccnc3cc(CN4C(=O)CCC4=O)sc23)c1O[C@@H]1CN(CCO)C[C@@H]1F [Example 302, 1-[[7-[5-chloro-2-[(3R,4S)-4-fluoro-1-(2-hydroxyethyl)pyrrolidin-3-yl]oxy-3-methyl-phenyl]thieno[3,2-b]pyridin-2-yl]methyl]pyrrolidine-2,5-dione]",> 6.00,–
"Cc1cc(Cl)cc(-c2ccnc3cc(Cn4c(=O)ccn(CC(F)(F)F)c4=O)sc23)c1OC1CC2(COCCN2)C1 (stereo not drawn) [Example 697, 3-[[7-[5-chloro-3-methyl-2-(8-oxa-5-azaspiro[3.5]nonan-2-yloxy)phenyl]thieno[3,2-b]pyridin-2-yl]methyl]-1-(2,2,2-trifluoroethyl)pyrimidine-2,4-dione]",–,pIC50 [3]: > 6.00
"Cc1cc(Cl)cc(-c2ccnc3cc(Cn4c(=O)ccn(CC(F)(F)F)c4=O)sc23)c1OC1CC(N2CCC[C@H]2CF)C1 (stereo partly drawn) [Example 687, 3-[[7-[5-chloro-2-[3-[(2S)-2-(fluoromethyl)pyrrolidin-1-yl]cyclobutoxy]-3-methyl-phenyl]thieno[3,2-b]pyridin-2-yl]methyl]-1-(2,2,2-trifluoroethyl)pyrimidine-2,4-dione; 2,2,2-trifluoroacetic acid]",–,pIC50 [3]: > 6.00
"Cc1cc(Cl)cc(-c2ccnc3cc(Cn4c(=O)ccn(C(C)C(F)(F)F)c4=O)sc23)c1O[C@H]1CCCNC1 (stereo partly drawn) [Example 575, 3-[[7-[5-chloro-3-methyl-2-[[(3S)-3-piperidyl]oxy]phenyl]thieno[3,2-b]pyridin-2-yl]methyl]-1-(2,2,2-trifluooro-1-methyl-ethyl)pyrimidine-2,4-dione]",–,pIC50 [1]: > 6.00
"Cc1cc(Cl)cc(-c2ccnc3cc(COc4nc(=O)ccn4CC(F)(F)F)sc23)c1O[C@H]1CNCC[C@H]1C [Example 615, 2-[[7-[5-chloro-3-methyl-2-[[(3R,4R)-4-methyl-3-piperidyl]oxy]phenyl]thieno[3,2-b]pyridin-2-yl]methoxy]-1-(2,2,2-trifluoroethyl)pyrimidin-4-one]",–,pIC50 [1]: > 6.00
"Cc1cc(Cl)cc(-c2ccnc3ccsc23)c1OC1CCNC1=O (stereo not drawn) [Example 79, 3-(4-chloro-2-methyl-6-(thieno[3,2-b]pyridin-7-yl)phenoxy)pyrrolidin-2-one]",< 4.52,–
"Cc1cc(Cl)cc(-c2ccnc3cc(Cn4c(=O)ccn(CC(F)(F)F)c4=O)sc23)c1OC1CCC(O)CC1 (stereo not drawn) [Example 677, 3-[[7-[5-chloro-2-(4-hydroxycyclohexoxy)-3-methyl-phenyl]thieno[3,2-b]pyridin-2-yl]methyl]-1-(2,2,2-trifluoroethyl)pyrimidine-2,4-dione]",–,pIC50 [3]: > 6.00
"Cc1cc(Cl)cc(-c2ccnc3cc(CN4C(=O)C5C(C4=O)C5(C)C)sc23)c1O[C@H]1CC[C@H](N)C1 (stereo partly drawn) [Example 394, 3-[[7-[2-[(1S,3S)-3-aminocyclopentoxy]-5-chloro-3-methyl-phenyl]thieno[3,2-b]pyridin-2-yl]methyl]-6,6-dimethyl-3-azabicyclo[3.1.0]hexane-2,4-dione dihydrochloride]",> 6.00,–
"Cc1cc(Cl)cc(-c2ccnc3cc(CO)sc23)c1OC1CCNCC1 [Example 175, (7-(5-Chloro-3-methyl-2-(piperidin-4-yloxy)phenyl)thieno[3,2-b]pyridin-2-yl)methanol]",5.00 to 6.00,–
"Cc1cc(Cl)cc(-c2ccnc3cc(Cn4c(=O)ccn(C)c4=O)sc23)c1O[C@H]1C[C@H](N)C1 [Example 7, 3-((7-(2-((1r,3r)-3-Aminocyclobutoxy)-5-chloro-3-methylphenyl)thieno[3,2-b]pyridin-2-yl)methyl)-1-methylpyrimidine-2,4(1H,3H)-dione]",> 6.00,–
"Cc1cc(Cl)cc(-c2ccnc3cc(Cn4c(=O)ccn(CCC(F)(F)F)c4=O)sc23)c1O[C@H]1CCCNC1 [Example 583, 3-[[7-[5-chloro-3-methyl-2-[[(3S)-3-piperidyl]oxy]phenyl]thieno[3,2-b]pyridin-2-yl]methyl]-1-(3,3,3-trifluoropropyl)pyrimidine-2,4-dione]",–,pIC50 [1]: > 6.00
"Cc1cc(Cl)cc(-c2ccnc3cc(Cn4c(=O)ccn(CC(F)(F)F)c4=O)sc23)c1O[C@H]1CNC[C@@H]1C [Example 627, 3-[[7-[5-chloro-3-methyl-2-[(3R,4S)-4-methylpyrrolidin-3-yl]oxy-phenyl]thieno[3,2-b]pyridin-2-yl]methyl]-1-(2,2,2-trifluoroethyl)pyrimidine-2,4-dione]",–,pIC50 [1]: > 6.00
"Cc1cc(Cl)cc(-c2ccnc3cc(CN4CCCCS4(=O)=O)sc23)c1O[C@@H]1CNC[C@@H]1F [Example 2, 2-((7-(5-Chloro-2-(((3R,4S)-4-fluoropyrrolidin-3-yl)oxy)-3-methylphenyl)thieno[3,2-b]pyridin-2-yl)methyl)-1,2-thiazinane 1,1-dioxide]",5.00 to 6.00,–
"Cc1cc(Cl)cc(-c2ccnc3cc(Cn4c(=O)ccn(C)c4=O)sc23)c1O[C@@H]1CCN(C)C[C@@H]1C [Example 457, 3-[[7-[5-chloro-2-[[(3S,4R)-1,3-dimethyl-4-piperidyl]oxy]-3-methyl-phenyl]thieno[3,2-b]pyridin-2-yl]methyl]-1-methyl-pyrimidine-2,4-dione]",–,pIC50 [1]: > 6.00
"Cc1cc(Cl)cc(-c2ccnc3cc([C@H](C)N4C(=O)C5CC5C4=O)sc23)c1O[C@H]1CCCNC1 (stereo partly drawn) [Example 288, 3-[(1S)-1-[7-[5-chloro-3-methyl-2-[[(3S)-3-piperidyl]oxy]phenyl]thieno[3,2-b]pyridin-2-yl]ethyl]-3-azabicyclo[3.1.0]hexane-2,4-dione; 2,2,2-trifluoroacetic acid]",> 6.00,–
"Cc1cc(Cl)cc(-c2ccnc3cc(CO)sc23)c1OCC1CCCNC1 (stereo not drawn) [Example 189, (7-(5-Chloro-3-methyl-2-(piperidin-3-ylmethoxy)phenyl)thieno[3,2-b]pyridin-2-yl)methanol]",4.52 to 5.00,–

# Second part, led by results:
pIC50 [2],Structure (SMILES),also measured
> 6.00,"Cc1cc(Cl)cc(-c2ccnc3cc(CN4C(=O)C5C(C4=O)C5(C)C)sc23)c1OC1CCNC1(C)C (stereo not drawn) [Example 368, 3-[[7-[5-chloro-2-(2,2-dimethylpyrrolidin-3-yl)oxy-3-methyl-phenyl]thieno[3,2-b]pyridin-2-yl]methyl]-6,6-dimethyl-3-azabicyclo[3.1.0]hexane-2,4-dione]",–
> 6.00,"Cc1cc(Cl)cc(-c2ccnc3cc([C@@H](C)N4C(=O)C5C(C4=O)C5(C)C)sc23)c1OC1CCC(C)NC1 (stereo partly drawn) [Example 397, 3-[(1R)-1-[7-[5-chloro-3-methyl-2-[(6-methyl-3-piperidyl)oxy]phenyl]thieno[3,2-b]pyridin-2-yl]ethyl]-6,6-dimethyl-3-azabicyclo[3.1.0]hexane-2,4-dione; 2,2,2-trifluoroacetic acid]",–
> 6.00,"Cc1cc([N+](=O)[O-])cc(-c2ccnc3cc(Cn4c(=O)ccn(CC(F)(F)F)c4=O)sc23)c1OC1CCN(C(C)(C)C)CC1 [Example 347, 3-[[7-[2-[(1-tert-butyl-4-piperidyl)oxy]-3-methyl-5-nitro-phenyl]thieno[3,2-b]pyridin-2-yl]methyl]-1-(2,2,2-trifluoroethyl)pyrimidine-2,4-dione]",–
> 6.00,"Cc1cc(Cl)cc(-c2ccnc3cc([C@H](C)N4C(=O)C5C(C4=O)C5(C)C)sc23)c1OC1CCC(C)NC1 (stereo partly drawn) [Example 396, 3-[(1S)-1-[7-[5-chloro-3-methyl-2-[(6-methyl-3-piperidyl)oxy]phenyl]thieno[3,2-b]pyridin-2-yl]ethyl]-6,6-dimethyl-3-azabicyclo[3.1.0]hexane-2,4-dione; 2,2,2-trifluoroacetic acid]",–
